Converted amounts (≈) assume the structure as drawn. Where two headings read alike, the source gives them in different places.
Tests used:
[1] = test system: gram positive bacteria; assay: In vitro anti-bacterial activity assay (broth dilution MIC), gram positive bacteria; format: cell-based, S. aureus; settings: for MIC: 18 h
Procedure, shortened: (§1)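 Broth dilution MIC following CLSI M7-A2: compounds serially diluted, log-phase test strains added to final ~5×10^5 CFU/ml, incubated ~18 hours at 35° C in ambient air. Plates read on microplate reader or visually; MIC is lowest concentration inhibiting growth.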

[2] = test system: gram negative bacteria; assay: In vitro anti-bacterial activity assay (broth dilution MIC), gram negative bacteria; format: cell-based, E. coli
Procedure, shortened: as §1

[3] = test system: CHO-K1 cells; assay: in vitro; format: cell-based; settings: Chinese hamster, 24 h
[4] = test system: 3T3 fibroblast cells; assay: In vitro phototoxicity assay (neutral red; UV light-treated vs dark control plates); format: cell-based; settings: for Photo Toxicity UV Tox50: UV light 50 minutes; for Photo Toxicity Dark Tox50: dark control plate
Procedure, shortened: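 Neutral red viability readout (A535 after EtOH/acetic acid extraction) compares paired plates: one exposed 50 min to UV at 1.6–1.8 mW/cm^2, one held in darkness, both dosed with compound in HBSS and recovered overnight. 3T3 fibroblast cells used; phototoxicity taken as the difference.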

[5] = Mammalian cytotoxicity assay (resazurin), COS-1 cells; format: cell-based; settings: African green monkey, read-out: Cytotox. COS-1
Procedure, shortened: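 Resazurin read-out (0.042 mg/ml, 2 h at 37° C. then 30 min dark, room temperature; fluorescence 535/590 nm) follows 24-hour compound exposure of overnight-seeded cells, serially diluted. IC50 is the concentration giving 50% growth inhibition.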

[6] = in vitro; format: cell-based; settings: Chinese hamster, Cytotox. CHO-K1
[7] = Staphylococcus aureus, S. aureus MRSA5, read-out: Median MIC's G+ S. aureus MRSA5
[8] = Staphylococcus aureus, S. aureus RN450, read-out: Median MIC's G+ S. aureus RN450
[9] = Streptococcus pneumoniae, S. pneumoniae 157E-Strep, read-out: Median MIC's G+ S. pneumoniae 157E-Strep
[10] = Escherichia coli, 18 h, E. coli D1 209, read-out: Median MIC's G− E. coli D1 209
[11] = Escherichia coli, 18 h, E. coli MG 1655, read-out: Median MIC's G− E. coli MG 1655
[12] = Escherichia coli, ATCC25922, 18 h, E. coli ATCC 25922, read-out: Median MIC's G− E. coli ATCC 25922
[13] = Pseudomonas aeruginosa, 18 h, P. aeruginosa K201 PAO6609, read-out: Median MIC's G− P. aeruginosa K201 PAO6609

SMILES	Photo Toxicity UV Tox50 [4]	Photo Toxicity Dark Tox50 [4]	MIC [1, 7]	MIC [1, 8]	MIC [1, 9]	MIC [2, 10]	MIC [2, 11]	MIC [2, 12]	MIC [2, 13]	IC50 at 24 h [5]	IC50 at 24 h [6]	other results
CN(C)CCCNC(=O)c1cccc(-c2ccc(O)c3c2C[C@H]2C[C@H]4[C@H](N(C)C)C(O)=C(C(N)=O)C(=O)[C@@]4(O)C(O)=C2C3=O)c1 [Q]	>137.36 µM	>137.36 µM										Median MIC's G+ S. aureus MRSA5 ([1]; S. aureus MRSA5): 64 µg/mL; Median MIC's G+ S. aureus RN450 ([1]; S. aureus RN450): 2 µg/mL; Median MIC's G+ S. pneumoniae 157E-Strep ([1]; S. pneumoniae 157E-Strep): 1 µg/mL; Median MIC's G− E. coli ATCC 25922 ([2]; E. coli ATCC 25922): 64 µg/mL; Median MIC's G− E. coli D1 209 ([2]; E. coli D1 209): 64 µg/mL; Median MIC's G− E. coli MG 1655 ([2]; E. coli MG 1655): 64 µg/mL; Median MIC's G− P. aeruginosa K201 PAO6609 ([2]; P. aeruginosa K201 PAO6609): 64 µg/mL; IC50 [3]: > 137 µM
CN(C)CCCNC(=O)c1cccc(-c2ccc(O)c3c2C[C@H]2C[C@H]4[C@H](N(C)C)C(O)=C(C(N)=O)C(=O)[C@@]4(O)C(O)=C2C3=O)c1 [J]	>130.13 µM	>130.13 µM	64 µg/mL (≈ 103 µM)	1 µg/mL (≈ 1.62 µM)	1 µg/mL (≈ 1.62 µM)	64 µg/mL (≈ 103 µM)	32 µg/mL (≈ 51.7 µM)	32 µg/mL (≈ 51.7 µM)	64 µg/mL (≈ 103 µM)			IC50 [3]: > 40.3 µM
CCOC(=O)CCNC(=O)c1cccc(-c2ccc(O)c3c2C[C@H]2C[C@H]4[C@H](N(C)C)C(O)=C(C(N)=O)C(=O)[C@@]4(O)C(O)=C2C3=O)c1 [I, 3-[3-((6aS,10S,10aS,11aR)-8-Carbamoyl-10-dimethylamino-4,6,6a,9-tetrahydroxy-5,7-dioxo-5,6a,7,10,10a,11,11a,12-octahydro-naphthacen-1-yl)-benzoylamino]-propionic acid ethyl ester]	>141.76 µM	>141.76 µM	2 µg/mL (≈ 3.16 µM)	0.06 µg/mL (≈ 0.0947 µM)	3 µg/mL (≈ 4.73 µM)					> 14.2 µM	> 14.2 µM	MIC ([2]; Escherichia coli, 18 h, read-out: Median MIC's G− E. coli D1 209, E. coli D1 209): 64 µg/mL (≈ 101 µM); MIC ([2]; Escherichia coli, 18 h, read-out: Median MIC's G− E. coli MG 1655, E. coli MG 1655): 64 µg/mL (≈ 101 µM); MIC ([2]; Escherichia coli, ATCC25922, 18 h, read-out: Median MIC's G− E. coli ATCC 25922, E. coli ATCC 25922): 64 µg/mL (≈ 101 µM); MIC ([2]; Pseudomonas aeruginosa, 18 h, read-out: Median MIC's G− P. aeruginosa K201 PAO6609, P. aeruginosa K201 PAO6609): 64 µg/mL (≈ 101 µM)
CN(C)CC(=O)Nc1ccc(-c2ccc(O)c3c2C[C@H]2C[C@H]4[C@H](N(C)C)C(O)=C(C(N)=O)C(=O)[C@@]4(O)C(O)=C2C3=O)cc1 [BC]	>135.63 µM	>135.63 µM	2 µg/mL (≈ 3.39 µM)	0.06 µg/mL (≈ 0.102 µM)	0.06 µg/mL (≈ 0.102 µM)	1 µg/mL (≈ 1.69 µM)	2 µg/mL (≈ 3.39 µM)	1 µg/mL (≈ 1.69 µM)	64 µg/mL (≈ 108 µM)	> 13.6 µM	> 13.6 µM	
CO/N=C/c1ccc(-c2ccc(O)c3c2C[C@H]2C[C@H]4[C@H](N(C)C)C(O)=C(C(N)=O)C(=O)[C@@]4(O)C(O)=C2C3=O)o1 (stereo in doubt) [AZ]	>156.79 µM	>156.79 µM	1 µg/mL (≈ 1.86 µM)	0.13 µg/mL (≈ 0.242 µM)	0.06 µg/mL (≈ 0.112 µM)	64 µg/mL (≈ 119 µM)				< 2.44 µM	3.04 µM	
CN(C)[C@@H]1C(O)=C(C(N)=O)C(=O)[C@@]2(O)C(O)=C3C(=O)c4c(O)ccc(-c5cccc(CCCN)c5)c4C[C@H]3C[C@@H]12 [DG]	64.8 µM	>200 µM	64 µg/mL (≈ 117 µM)	0.5 µg/mL (≈ 0.913 µM)	0.125 µg/mL (≈ 0.228 µM)	32 µg/mL (≈ 58.4 µM)	32 µg/mL (≈ 58.4 µM)	32 µg/mL (≈ 58.4 µM)	64 µg/mL (≈ 117 µM)	> 20 µM	> 20 µM	
CN(C)c1cc(-c2cccc(C(N)=O)c2)c(O)c2c1C[C@H]1C[C@H]3[C@H](N(C)C)C(O)=C(C(N)=O)C(=O)[C@@]3(O)C(O)=C1C2=O [CD]	>146.26 µM	>146.26 µM	32 µg/mL (≈ 55.5 µM)	8 µg/mL (≈ 13.9 µM)	16 µg/mL (≈ 27.7 µM)	64 µg/mL (≈ 111 µM)	64 µg/mL (≈ 111 µM)	64 µg/mL (≈ 111 µM)	64 µg/mL (≈ 111 µM)	> 45.3 µM	> 45.3 µM	
COCCNCc1ccc(-c2ccc(O)c3c2C[C@H]2C[C@H]4[C@H](N(C)C)C(O)=C(C(N)=O)C(=O)[C@@]4(O)C(O)=C2C3=O)cc1 [BG]	>146.03 µM	>146.03 µM	1 µg/mL (≈ 1.73 µM)	0.06 µg/mL (≈ 0.104 µM)	0.06 µg/mL (≈ 0.104 µM)	0.5 µg/mL (≈ 0.866 µM)	0.5 µg/mL (≈ 0.866 µM)	0.25 µg/mL (≈ 0.433 µM)	64 µg/mL (≈ 111 µM)	> 95.6 µM	45.3 to 125 µM	
CN(C)CCNC(=O)c1cccc(-c2ccc(O)c3c2C[C@H]2C[C@H]4CC(O)=C(C(N)=O)C(=O)[C@@]4(O)C(O)=C2C3=O)c1 [Z, (4aS,5aR,12aS)-7-[3-(2-Dimethylamino-ethylcarbamoyl)-phenyl]-3,10,12,12a-tetrahydroxy-1,11-dioxo-1,4,4a,5,5a,6,11,12a-octahydro-naphthacene-2-carboxylic acid amide]	>158.85 µM	>158.85 µM	64 µg/mL (≈ 114 µM)	64 µg/mL (≈ 114 µM)	64 µg/mL (≈ 114 µM)	64 µg/mL (≈ 114 µM)	64 µg/mL (≈ 114 µM)	64 µg/mL (≈ 114 µM)	64 µg/mL (≈ 114 µM)	> 15.9 µM	> 15.9 µM	
CN(C)CC(=O)N1CC=C(c2ccc(O)c3c2C[C@H]2C[C@H]4[C@H](N(C)C)C(O)=C(C(N)=O)C(=O)[C@@]4(O)C(O)=C2C3=O)CC1 [AL]	>145.35 µM	>145.35 µM	32 µg/mL (≈ 55.1 µM)	0.5 µg/mL (≈ 0.861 µM)	0.5 µg/mL (≈ 0.861 µM)	64 µg/mL (≈ 110 µM)	16 µg/mL (≈ 27.6 µM)	16 µg/mL (≈ 27.6 µM)	64 µg/mL (≈ 110 µM)	> 145 µM	> 145 µM	
CN(C)CCNC(=O)c1cccc(-c2ccc(O)c3c2C[C@H]2C[C@H]4[C@H](N(C)C)C(O)=C(C(N)=O)C(=O)[C@@]4(O)C(O)=C2C3=O)c1 [AB]	>200 µM	>200 µM	32 µg/mL (≈ 52.9 µM)	0.5 µg/mL (≈ 0.827 µM)	0.25 µg/mL (≈ 0.413 µM)	64 µg/mL (≈ 106 µM)	16 µg/mL (≈ 26.5 µM)	32 µg/mL (≈ 52.9 µM)	64 µg/mL (≈ 106 µM)	> 200 µM	> 200 µM	
